Tests used:
Format in all cases: cell-based
lung (A549) = assay: Cell viability (ATP luminescence) IC50 determination, A549; conditions: Homo sapiens, A549 cells, 72 hours incubation, vs DMSO vehicle control
Experimental: (§1) In yet another aspect of the instant invention, the IC50 or the half maximal inhibitory concentration of the candidate compounds were determined to assess drug potency and potential dosing regimens for in vivo use. One of ordinary skill in the art is readily able to ascertain such information using commonly known methodologies. As it has been well described in the art, IC50 represents and measures how much of a particular substance/molecule is needed to inhibit some biological process by 50%. In the instant case, the IC50 of the candidate compounds were determined as the concentration that led to a response of 50% compared to the vehicle control cells.
(§2) The cell lines listed are maintained at approximately 5% CO2, 37° C., 95% relative humidity in the media appropriate for that cell line. The cells are sub-cultured every two to three days and plated in clear bottom 96-well plates at a density of 1×10^4 cells/well and incubated at ca. 5% CO2, 37° C. overnight prior to initiation of the assay. To begin cell viability assays, the media in the cell plate (100 μL) is replaced with fresh media (100 μL). The test articles are serially diluted […] in fresh media in duplicate and added to the cells (100 μL) at final sample concentrations of 0.46, 1.37, 4.12, 12.35, 37.04, 111.1, 333.3 and 1000 μM (≤1% DMSO) in a total volume of 200 μL. Wells containing no cells and wells containing cells lysed with 0.1% Triton-X are used for baseline controls. Tamoxifen is used as a known control for each assay and DMSO only will be run as vehicle control. The samples are incubated at ca. 37° C. in humidified 5% CO2 atmosphere for 72 hours. The plate is monitored once a day during the incubation period, paying special attention to the level of confluence. If the cells approach confluence prior to the end of the 72 hour incubation period, the experiment is terminated and cell viability measured as described below.
(§3) Cell viability is determined using a commercially available kit to determine ATP levels by luminescence. Briefly, the cell plate has the media removed and replaced with 100 μL of fresh media, and the buffer and lyophilized substrate are equilibrated to room temperature. The buffer is used to reconstitute the substrate just prior to addition to the wells of the cell plate (100 μL per well). The plate is placed into the Infinite M200 plate reader, allowed to shake for 10 minutes followed by a 10 minute wait period. The plate is then read using an integration time of 0.5 sec with no attenuation.
(§4) The mean baseline controls (wells with Triton X-100 or no cells) are subtracted from the total luminescence to give the net luminescence for that well. This total is compared to the control of DMSO only. An IC50 is calculated as the concentration that led to a response of 50% compared to the vehicle control cells.

ovary (Ovcar-3) = assay: Cell viability (ATP luminescence) IC50 determination, Ovcar-3; conditions: Homo sapiens, Ovcar-3 cells, 72 hours incubation, vs DMSO vehicle control
Experimental: as §1, §2, §3, §4

Pancreas (Capan-1) = assay: Cell viability (ATP luminescence) IC50 determination, Capan-1; conditions: Homo sapiens, Capan-1 cells, 72 hours incubation, vs DMSO vehicle control
Experimental: as §1, §2, §3, §4

[1] = test system: cells lines derived from breast, lung, colon, prostate, endometrial and ovarian cancers; assay: In vitro studies of tumor cell growth inhibition in cancer cell lines; conditions: CYP19 positive (MDA-MB-213 and SK-OV-3) vs CYP19 negative (MCF-7 and NIH:OVCAR-3), where it is reduced

Row | SMILES | IC50 (lung (A549)) [µM] | IC50 (ovary (Ovcar-3)) [µM] | IC50 (Pancreas (Capan-1)) [µM] | in vitro studies of tumor cell growth, by CYP19 status of the cell line [1]
1 | COC[C@H]1C[C@@H]2[C@H](CC[C@]3(C)C(O)CC[C@@H]23)c2ccc(O)cc21 (stereo partly drawn) [Compound 3, (6S,8R,9S,13S,14S)-6-(methoxymethyl)-13-methyl-7,8,9,11,12,13,14,15,16,17-decahydro-6H-cyclopenta[a]phenanthrene-3,17-diol] | 84 | 94 | 168 | –
2 | COC[C@@H]1C[C@@H]2[C@H](CC[C@]3(C)C(O)CC[C@@H]23)c2ccc(O)cc21 (stereo partly drawn) [Compound 4, (6R,8R,9S,13S,14S)-6-(methoxymethyl)-13-methyl-7,8,9,11,12,13,14,15,16,17-decahydro-6H-cyclopenta[a]phenanthrene-3,17-diol] | 70 | 100 | 32 | –
3 | C[C@]12CC[C@@H]3c4ccc(O)cc4[C@H](CO)C[C@H]3[C@@H]1CCC2O (stereo partly drawn) [Compound 8, (6R,8R,9S,13S,14S)-6-(hydroxymethyl)-13-methyl-7,8,9,11,12,13,14,15,16,17-decahydro-6H-cyclopenta[a]phenanthrene-3,17-diol] | 184 | 221 | 212 | –
4 | COC[C@@H]1C[C@@H]2[C@H](CC[C@]3(C)C(O)CC[C@@H]23)[C@@]2(C)CCC(O)CC12 (stereo partly drawn) [Compound 9, (6R,8R,9S,10R,13S,14S)-6-(methoxymethyl)-10,13-dimethylhexadecahydro-1H-cyclopenta[a]phenanthrene-3,17-diol] | > 1000 | > 1000 | > 1000 | –
5 | C[C@]12CC[C@@H]3c4ccc(O)cc4[C@H](CON)C[C@H]3[C@@H]1CCC2O (stereo partly drawn) [Compound 10, (6R,8R,9S,13S,14S)-6-((aminooxy)methyl)-13-methyl-7,8,9,11,12,13,14,15,16,17-decahydro-6H-cyclopenta[a]phenanthrene-3,17-diol] | 170 | 317 | 277 | –
6 | CO[C@@H]1C[C@@H]2[C@H](CC[C@]3(C)C(O)CC[C@@H]23)c2ccc(O)cc21 (stereo partly drawn) [Compound 18, (6R,8R,9S,13S,14S)-6-methoxy-13-methyl-7,8,9,11,12,13,14,15,16,17-decahydro-6H-cyclopenta[a]phenanthrene-3,17-diol] | 139 | 207 | 192 | –
7 | COCC[C@@H]1C[C@@H]2[C@H](CC[C@]3(C)C(O)CC[C@@H]23)c2ccc(O)cc21 (stereo partly drawn) [Compound 19, (6S,8R,9S,13S,14S)-6-(2-methoxyethyl)-13-methyl-7,8,9,11,12,13,14,15,16,17-decahydro-6H-cyclopenta[a]phenanthrene-3,17-diol] | 80 | 96 | 32 | –
8 | COCCCC[C@@H]1C[C@@H]2[C@H](CC[C@]3(C)C(O)CC[C@@H]23)c2ccc(O)cc21 (stereo partly drawn) [Compound 20, (6R,8R,9S,13S,14S)-6-(4-methoxybutyl)-13-methyl-7,8,9,11,12,13,14,15,16,17-decahydro-6H-cyclopenta[a]phenanthrene-3,17-diol] | 34 | 60 | 16 | –
9 | COCCCCCC[C@@H]1C[C@@H]2[C@H](CC[C@]3(C)C(O)CC[C@@H]23)c2ccc(O)cc21 (stereo partly drawn) [Compound 21, (6R,8R,9S,13S,14S)-6-(6-methoxyhexyl)-13-methyl-7,8,9,11,12,13,14,15,16,17-decahydro-6H-cyclopenta[a]phenanthrene-3,17-diol] | 17 | 24 | 23 | –
10 | CCC(CCCCC[C@@H]1C[C@@H]2[C@H](CC[C@]3(C)C(O)CC[C@@H]23)c2ccc(O)cc21)OC (stereo partly drawn) [Compound 22, (6R,8R,9S,13S,14S)-6-(6-methoxyoctyl)-13-methyl-7,8,9,11,12,13,14,15,16,17-decahydro-6H-cyclopenta[a]phenanthrene-3,17-diol] | 13 | 20 | 22 | –
11 | CCCCCCCCCCCCCCCCCC(=O)OC1CC[C@H]2[C@@H]3C[C@@H](COC)c4cc(O)ccc4[C@H]3CC[C@]12C (stereo partly drawn) [Compound 23, (6R,8R,9S,13S,14S)-3-hydroxy-6-(methoxymethyl)-13-methyl-7,8,9,11,12,13,14,15,16,17-decahydro-6H-cyclopenta[a]phenanthren-17-yl stearate] | > 1000 | > 1000 | 775 | –
12 | COC[C@@H]1C[C@@H]2[C@H](CC[C@]3(C)C(=O)CC[C@@H]23)[C@@]2(C)C=CC(=O)C=C12 [Compound 24, (6R,8R,9S,10R,13S,14S)-6-(methoxymethyl)-10,13-dimethyl-7,8,9,10,11,12,13,14,15,16-decahydro-3H-cyclopenta[a]phenanthrene-3,17(6H)-dione] | – | – | – | highest in cell lines that are CYP19 positive
13 | CCCOCCCC[C@@H]1C[C@@H]2[C@H](CC[C@]3(C)C(O)CC[C@@H]23)c2ccc(O)cc21 (stereo partly drawn) [Compound 30, (6R,8R,9S,13S,14S)-13-methyl-6-(4-propoxybutyl)-7,8,9,11,12,13,14,15,16,17-decahydro-6H-cyclopenta[a]phenanthrene-3,17-diol] | 5 | 29 | 10 | –
14 | CCOCCCCC[C@@H]1C[C@@H]2[C@H](CC[C@]3(C)C(O)CC[C@@H]23)c2ccc(O)cc21 (stereo partly drawn) [Compound 31, (6R,8R,9S,13S,14S)-13-methyl-6-(5-ethoxypentyl)-7,8,9,11,12,13,14,15,16,17-decahydro-6H-cyclopenta[a]phenanthrene-3,17-diol] | 7 | 28 | 15 | –

From patent publication US10174070B2, “6-substituted estradiol derivatives and methods of use” (Endece LLC, priority 2005, dated 2019)
